Measurements: patent US9587035B2, “Assay for benzylpiperazine and metabolites” (Randox Laboratories Limited, priority 2012, dated 2017)
≈ marks a conversion by molar mass, not a printed value. Counter-ions that a name gives are not always drawn.

Key:
[1] = test system: polyclonal antibodies (antiserum raised to Immunogen II), detecting agent Hapten 1-HRP; test: Biochip competitive immunoassay (antibody characterisation, cross-reactivity); format: binding, sheep; conditions: for % Cross-reactivity: CR based on 100% for 1-benzylpiperazine, detecting agent derived from Hapten-1, % CR = IC50 1-benzylpiperazine/IC50 CR x 100; for IC50: detecting agent derived from Hapten-1, competitive assay format
Method: Pre-immunisation blood samples were collected from 16-month-old female Suffolk sheep. The immunisation mixture was prepared by adding 2 mg of immunogen prepared in PBS at a ratio of 50% lmmunogen/PBS with 50% Freund's Complete adjuvant (Sigma, Product Number—F5881) and emulsifying the mixture to prepare the final product for immunisation. On Day 0, each sheep was immunized intramuscularly with 1 ml of the mixture described above, with 2-[4-(piperazin-1-yl-methyl)phenoxy]acetic acid conjugated to a carrier protein bovine thyroglobulin (BTG) (as in example 6 above). Subsequent boosts (a total of 20 boosts) were administered intramuscularly to each sheep every 30 days. Freund's complete adjuvant (Sigma, Product Number—F5881) was used for primary immunizations and Freund's incomplete adjuvant (Sigma product Number—F5506) was used for all subsequent injections. Routine bleeds were taken between boosts to monitor the antibody titre and sensitivity, using hapten 1 conjugated to Horseradish peroxidase in a competitive ELISA, testing cross reactivity to 1-Benzylpiperazine and 4-OH benzylpiperazine.
Once the antibody titres were assessed as meeting the required performance criteria i.e. there was no significant increase in antibody titre and a plateau had been reached in the % displacement profile, antibodies were then evaluated by competitive immunoassay. They were first immobilized on a biochip platform (9 mm×9 mm) (Randox Laboratories Ltd.), which was the vessel for the immunoreactions. The semi-automated bench top analyser Evidence Investigator was used (EV3602, Randox Laboratories Ltd., Crumlin, UK, patents-EP98307706, EP98307732, EP0902394, EP1227311, EP1434995 and EP1354623). The assay principle was based on competition for binding sites of the polyclonal antibodies between free antigen (1-Benzylpiperazine and other cross-reactants) and labelled conjugate (Hapten 1-HRP, prepared as in example 6). Assay dilutent (155 μl), calibrator/1-benzylpiperazine or potential cross-reactant (25 μl) followed by Hapten 1-HRP conjugate (120 μl) were added to the appropriate biochip. The biochips were then incubated for 30 minutes at 30° C. on a thermo-shaker set at 370 rpm. The biochips were then subjected to 2 quick wash cycles using the wash buffer provided, followed by 4×2 minute wash cycles. 250 μl of signal (1:1 luminol+peroxide, v/v) was then added to each biochip, and after 2 minutes the biochip carrier was imaged in the Evidence Investigator analyser. The system incorporates dedicated software to automatically process, report and archive the data generated (details can be found in FitzGerald, S. P. et al, Clin. Chem. 51(7); 1165-1176; 2005).
Calibration curves were generated using the Biochip based immunoassay as described above. The IC50 was calculated from the graphs by taking 50% of the signal from the zero calibrator and reading the corresponding value on the x-axis, equivalent to the concentration of unlabelled ligand which reduces specific binding of labelled ligand by 50%. Specificity was also tested against a range of related analytes (Table 1). Cross-reactivity was calculated according to the following formula: % CR=IC50, 1-benzylpiperazine/IC50, CR×100 where % CR is the percentage cross-reactivity, IC50, 1-benzylpiperazine is the concentration of 1-benzylpiperazine that causes 50% displacement of signal and IC50, CR is the concentration of 1-benzylpiperazine/metabolites/structurally-related molecules that causes 50% displacement of signal.

[2] = Wistar rats, cited from earlier work; for % of the dose excreted as this molecule: BZP dosed; for detectability in urine post-dosing / time of peak urinary level post-dosing: urine
MDMA immunoassay = conditions: commercial MDMA immunoassay; cited from earlier work
[3] = cited from earlier work

| SMILES | % Cross-reactivity [1] [%] | IC50 [1] [µg/mL] | other results |
| --- | --- | --- | --- |
| c1cc2c(cc1CN1CCNCC1)OCO2 [1-Piperonylpiperazine] | 101.5 | 0.0014 (≈ 0.00636 µM) | – |
| Clc1cccc(N2CCNCC2)c1 [mCPP HCl, 1-(3-chlorophenyl)piperazine] | 0.6 | 0.2333 | – |
| FC(F)(F)c1cccc(N2CCNCC2)c1 [1-(3-Trifluoromethylphenyl)piperazine] | 1.9 | 0.0737 (≈ 0.32 µM) | – |
| Oc1ccc(CN2CCNCC2)cc1 [4-OH Benzylpiperazine, 4-OH benzylpiperazine] | 172.1 | 0.0008 (≈ 0.00416 µM) | % of the dose excreted as this molecule [2]: 25%; detectability in urine post-dosing [2]: detectable up to 48hrs; time of peak urinary level post-dosing [2]: around 8 hrs |
| Cc1cccc(N2CCNCC2)c1 [1-(3-Methylphenyl)piperazine] | 3.9 | 0.0359 (≈ 0.204 µM) | – |
| c1ccc(N2CCNCC2)cc1 [1-Phenylpiperazine] | 3.4 | 0.0412 (≈ 0.254 µM) | – |
| COc1ccccc1N1CCNCC1 [1-(2-Methoxyphenyl)piperazine diHCl, 1-(2-Methoxyphenyl)piperazine] | 3.2 | 0.0438 | – |
| Cc1ccc(N2CCNCC2)cc1 [1-(4-Methylphenyl)piperazine] | 1.3 | 0.1077 (≈ 0.611 µM) | – |
| Cc1cccc(CN2CCNCC2)c1 [N-(3-Methylbenzyl)piperazine diHCl, N-(3-Methylbenzyl)piperazine] | 52.9 | 0.0026 | – |
| Oc1cccc(CN2CCNCC2)c1 [3-(Piperazin-1ylmethyl)phenol diHCl, 3-(Piperazin-1ylmethyl)phenol] | 123.7 | 0.0011 | % of the dose excreted as this molecule [2]: 2%; detectability in urine post-dosing [2]: detectable up to 48hrs; time of peak urinary level post-dosing [2]: around 8 hrs |
| Oc1cccc(N2CCNCC2)c1 [1-(3-Hydroxyphenyl)piperazine] | 1.0 | 0.14 (≈ 0.785 µM) | – |
| c1ccc(CN2CCNCC2)cc1 [1-Benzylpiperazine, 1-benzylpiperazine] | 100.0 | 0.0014 (≈ 0.00794 µM) | concentration needed for a positive result (MDMA immunoassay): 3,000,000 ng/mL; % of the dose excreted as this molecule [2]: 6.7%; detectability in urine post-dosing [2]: undetectable at 48hrs; time of peak urinary level post-dosing [2]: around 4 hrs; elimination half life ([3]; in vivo): 5 to 6 h; time at which elimination is complete ([3]; in vivo): around 44 hrs; time to detection in plasma ([3]; oral dose of BZP hydrochloride): ≤ 30 min |
